Experiments:
[1] = Temperature sensitivity of carboxylic acid extraction by 0.5 mol/kg Alamine 304 + 10% octanol in kerosene; assay type: physicochemical; conditions: distribution coefficient at 30°C divided by that at 75°C; for TS in Equilibrium with Aqueous Solutions of (mol/kg) 0.05: aqueous phase 0.05 mol/kg; for TS in Equilibrium with Aqueous Solutions of (mol/kg) 0.2: aqueous phase 0.2 mol/kg; for TS in Equilibrium with Aqueous Solutions of (mol/kg) 0.3: aqueous phase 0.3 mol/kg; for TS in Equilibrium with Aqueous Solutions of (mol/kg) 0.475: aqueous phase 0.475 mol/kg
Text: Referring now to said patents and the teachings thereof, one finds that the process taught therein utilizes the effect of temperature on phosphoric and carboxylic acid extraction by amine-based extractants. The term "amine" as used herein means water-immiscible amine, with a total of at least 20 carbon atoms on its chains. Said patents teach that such amine-based extractants (ABE) lose much of their extraction efficiency upon temperature elevation. This loss of efficiency is referred to as "temperature sensitivity of extraction" (TS). The magnitude of this TS can be represented by the ratio of the distribution coefficient at the lower temperature (DT1) and the distribution coefficient at the higher temperature (DT2). High TS provides for the purification and the concentration of carboxylic acids through altering the temperature between extraction and back-extraction. The acid is extracted from the fermentation liquor by an ABE at low temperature, and is then back-extracted with water at an elevated temperature. The aqueous solution obtained from that back-extraction is, in many cases, more concentrated than in the fermentation liquor. This process is referred to herein as the "temperature swing process" (TSP). The attraction of such processes is in the fact that the sole energy consumption is that of sensible heat, which saves a lot of the latent heat of water evaporation in the final concentration.

[2] = Distribution curves, extractant 1.2 mol/kg tricaprylyl amine and 2.4 mol/kg octanol in kerosene (Fig. 2); assay type: physicochemical; conditions: temperature gradient of 25-80°C
[3] = Extraction at 25°C and stripping at about 96°C with 50% w/w tridodecylamine and 50% w/w 1-n-octanol, recycled extractant; assay type: physicochemical; conditions: practically complete extraction with recycled extractant; feed 0.22 mol/kg
Description: […]. […] […]. The extractant was composed of 50% w/w tridodecylamine and 50% w/w of 1-n-octanol. The extraction was conducted at 25°C and the stripping at about 96°C.
Extraction as in Example 12 (100 g aqueous, 40 g extractant, 3 countercurrent stages) results in practically complete extraction of the acid to form an extract (loaded extractant) comprising 5% w/w lactic acid. […]. About two-thirds of the extracted lactic acid stays in the organic phase. Re-use of this organic phase in extraction from 2% lactic acid solutions results in low yields; not more than 20% of the acid is extracted. Increasing the number of stages in extraction has only a small effect. Near complete stripping and thus high yield in re-use of the organic phase requires about 150 g water per 40 g of extract, and 6-7 countercurrent stages. […]
Stripping the extract at 96°C with 35 g water results in an aqueous solution comprising 0.6 mol/kg ascorbic acid and an organic phase practically free of ascorbic acid. Re-use of this organic phase in extraction provides an extraction yield of at least 95% at the above conditions.

[4] = cited from earlier work
[5] = Distribution curves, extractant 1.2 mol/kg tricaprylyl amine (50%) and 3.8 mol/kg octanol (50%) (Fig. 3); assay type: physicochemical; conditions: extraction at 25°C and back-extraction at 96°C
Description: Fig. 3 illustrates distribution curves for extraction by an extractant composed of 1.2 mol/kg tricaprylyl amine (50%) and 3.8 mol/kg octanol (50%). The loading of the extractant in contact with 0.2 mol/kg ascorbic acid containing aqueous solution is about 0.5 mol/kg. […] The effect is even more impressive at the low concentrations end. […] A concentration factor of about 4 can be reached on extraction at 25°C and back-extraction at 96°C.

| Structure (SMILES) | TS in Equilibrium with Aqueous Solutions of (mol/kg) 0.05 [1] | TS in Equilibrium with Aqueous Solutions of (mol/kg) 0.2 [1] | TS in Equilibrium with Aqueous Solutions of (mol/kg) 0.3 [1] | TS in Equilibrium with Aqueous Solutions of (mol/kg) 0.475 [1] | uphill concentration factor [2] | product diluted compared with the feed [3] [times] | temperature sensitivity [5] | pKa [4] |
| --- | --- | --- | --- | --- | --- | --- | --- | --- |
| CC(C)C(=O)O [Isobutyric] | 1.9 | 1.5 | 1.4 | 1.1 | – | – | – | – |
| O=C(O)[C@H](O)[C@@H](O)[C@H](O)[C@H](O)CO [Gluconic] | 2.1 | 2.3 | 2.4 | 2.6 | – | – | – | – |
| O=C(O)CC(O)(CC(=O)O)C(=O)O [Citric, citric acid] | 6.0 | 3.1 | 2.6 | 2.2 | – | – | Practically no temperature sensitivity | – |
| O=C(O)CCCC(=O)O [Glutaric] | 3.9 | 4.5 | 4.5 | 4.4 | – | – | – | 4.4 |
| O=C(O)/C=C\C(=O)O [Maleic] | 1.1 | 1.0 | 1.0 | 1.0 | – | – | – | – |

The next lines start with results.

| TS in Equilibrium with Aqueous Solutions of (mol/kg) 0.05 [1] | TS in Equilibrium with Aqueous Solutions of (mol/kg) 0.2 [1] | TS in Equilibrium with Aqueous Solutions of (mol/kg) 0.3 [1] | TS in Equilibrium with Aqueous Solutions of (mol/kg) 0.475 [1] | uphill concentration factor [2] | product diluted compared with the feed [3] [times] | temperature sensitivity [5] | Structure (SMILES) | pKa [4] |
| --- | --- | --- | --- | --- | --- | --- | --- | --- |
| 3.4 | 3.2 | 2.7 | 2.4 | – | – | – | O=C(O)C(O)C(O)C(=O)O (stereo not drawn) [Tartaric] | – |
| 4.3 | 4.0 | 4.0 | 4.1 | about 2 | – | – | O=C(O)CCC(=O)O [Succinic, succinic acid] | – |
| 2.5 | 2.4 | 2.4 | 2.2 | – | 4 | – | CC(O)C(=O)O (stereo not drawn) [Lactic, lactic acid] | – |
| 3.6 | 1.5 | 1.3 | 1.1 | – | – | – | O=C(O)CC(=O)O [Malonic] | – |
| 4.0 | 4.3 | 4.0 | 4.0 | – | – | – | O=C(O)CC(O)C(=O)O (stereo not drawn) [Malic] | 3.22 |
